Tests used:
[1] = Rabbit ocular PK study of PS emulsion (2% PS); format: in vivo, New Zealand rabbits; conditions: 2% PS emulsion, three 25 μL eye drops; PS and its metabolites
Procedure: A formulation includes 2% PS; 5% Propylene glycol, 10% Mineral oil, 4% Tween 60, 4% Tween 80, 10% (2-hydroxypropyl)-β-cyclodextrin (HP-β-CD). Preparation method (2 mL scale): Oil phase: weight PS into glass vial, add propylene glycol, stir at 50° C. to obtain a clear solution. Then add mineral oil, stir to obtain a clear solution. Water phase: Dissolve HP-β-CD, […] and Tween 80 into water. Add water phase into oil phase, probe-sonicate for 5 sec, 8 times, with 5 sec intervals. Resultant emulsion is filtrated through 0.22 μm filter.
Rabbit ocular pharmacokinetic (PK) study: PS was administered to New Zealand rabbits topically to the eye; as three 25 μL eye drops, 5 min apart. Rabbits were euthanized at eight specified time points between 0.25 to 16 h, ocular tissues were dissected and PS was extracted with acetonitrile and its tissue levels as well as those of its metabolites were determined by HPLC as described (Xie G. et al., Br J Pharmacol 165:2′52-2166; 2012).

[2] = Ocular PK study of PS nanoparticles (mPEG-PLA), topical eye drops; format: in vivo, New Zealand white rabbits; parameters: AUC(0-t) / AUC0-16h, cornea / AUC0-16h, conjunctiva: concentration or dose not given beside the values; conditions: PS and its metabolites
Procedure: Composition: ˜3.0-3.5% PS, 96.5˜97% methoxy poly(ethylene glycol)-poly(lactide) (mPEG-PLA).
Preparation Method: Oil phase: 150 mg of PS and 1 g of PEG-PLA (Akina, Inc) were dissolved in 20 mL dichloromethane (DCM). Water phase: 365 mg of sodium cholate were dissolved in 60 ml of purified water. 5 mL of the oil phase was gently added into 15 mL of the water phase in a 50 mL Eppendorf conical tube. To create an emulsion, we used robe sonication for 2 min at 75% output (Branson 150, Fisher Scientific™, USA); the watt output was 12-13. The emulsion was transferred into a 100 mL beaker and stirred overnight at 600 rpm in a chemical hood until the DCM was fully evaporated. This was followed by centrifugation at 14,000 rpm for 1 h (Dupont, RC-5C). Then, the supernatant was transferred to another tube into which 3 mL of PBS were added to resuspend the nanoparticles. The nanoparticle solution was centrifuged for 6-7 seconds to remove aggregates. This supernatant was the final preparation.
Ocular PK study: PS formulated in nanoparticles as above was administered topically as eye drops to New Zealand white rabbits. The biodistribution of PS in ocular tissues at the indicated time points post administration was determined by HPLC.

[3] = system: corneal sensitivity; test: Corneal touch threshold (CTT) assay, Cochet-Bonnet aesthesiometer; format: in vivo, rabbits; conditions: commercially available form, one eye drop
Procedure: FIGS. 10A and 10B illustrate the ocular analgesic effect of PS. FIG. 10A: One drop of PS 0.5%, vehicle, or lidocaine was applied to one eye of rabbits (n=4/group) and the corneal touch threshold (CTT) was determined using an Eshesiometer. Vehicle had no effect on CTT (not shown; overlaps with the 0 value horizontal line). Values=mean±SEM. FIG. 10B: PS 0.5% in formulations differing in pH as indicated produced different analgesic responses in rabbits. The areas under each curve (AUC), indicted in the figure, that quantify these responses vary by as much as >5 fold. Values are the average of 2; all were within 11% of each other.
FIGS. 11A and 11B illustrates the effect of various concentrations of PS on corneal sensitivity determined by the corneal touch threshold (CTT) assay. The CTT score is expressed as length of filament. Measurements were performed at the indicated time points after a single application of PS as an eye drop. Rabbits with normal or dry eyes were studied (n=6 eyes per group). Dry eyes were induced by Concanavalin A injection as described in the text. The % PS content in each study is shown. The numbers in parentheses indicate the corresponding value of the area under the curve. Values=mean±SEM.
FIGS. 12A and 12B illustrate the effect of various drugs on corneal sensitivity determined by the corneal touch threshold (CTT) assay described herein. Each drug was used in its commercially available form; one eye drop of each was applied. The numbers in parentheses indicate the corresponding value of the area under the curve. Values=mean±SEM.
The analgesic effect of PS was examined on the surface of the eye by determining the corneal touch threshold (CTT) using the Luneau Cochet-Bonnet Aesthesiometer (Western Ophthalmics, Lynwood, Wash.) an adjustable nylon monofilament with a defined diameter, which is applied in different lengths to the center of the cornea.
In this embodiment, the composition of the PS preparation was: 0.5% PS, 18% (2-hydroxypropyl)-β-cyclodextrin (HP-β-CD), 1-4% Tween 80. Preparation Method: HP-β-CD was dissolved in purified water maintained in a 50° C. water bath. PS was added into this solution and kept at 50° C. overnight with stirring at 500 rpm until PS was fully dissolved. Tween 80 was added into the PS HP-β-CD solution, which was then centrifuged at 3000 rpm for 10 min to remove undissolved particles. The supernatant was collected and pH was adjusted to the desired value using a NaOH solution. The analgesic effect of PS was examined as above.
The effect of PS and other compounds on corneal sensitivity was determined in rabbits with normal or dry eyes using the CTT assay as above; DED was induced by Concanavalin A as previously described. The CTT score, expressed as filament length in mm, of normal eyes was 5.56±0.11 mm (mean±SEM for this and subsequent values) and in dry eyes 4.17±0.12 mm; the difference between the two is statistically significant (p<0.0001).

[4] = system: Con A-induced dry eye; test: Con A-induced dry eye disease (DED) in rabbits: TBUT, tear osmolarity, STT, tear lactoferrin; format: in vivo, New Zealand White (NZW) rabbits; conditions: 1 week of treatment, comparison with ophthalmic NSAIDs (FIG. 5)
Procedure: Con A was injected under ultrasound guidance into all the lacrimal glands and the success of the injection was verified by a post-injection ultrasound image (see FIG. 1 and FIG. 2). […] This variation explains why the blind injections recommended in the original method are often unsuccessful. This was confirmed by mixing the Con A solution with methylene blue and tracking its course after injection. In about ⅓ of the cases, Con A ended up outside the gland.
Four parameters of efficacy were evaluated instead of the usual one or two. They include (a) the tear break up time (TBUT), determined using 0.2% fluorescein over the eye and recording the time taken to develop black dots, lines or obvious disruption of the fluorescein film; (b) tear osmolarity, measured using TearLab Osmolarity Test and following the manufacturer's instructions (TearLab Corp., San Diego, Calif.); (3) Schirmer tear test (STT), determined using Schirmer strips (EagleVision, Denville, N.J.) inserted between the cornea and the palpebral conjunctiva at the mid-point of the lower lid and measuring the length of moistened strip at 5 min; and (4) tear lactoferrin levels measured by ELISA kit (MyBiosource, San Diego, Calif.) following the instructions of the manufacturer. All four have been used in clinical practice and correlate with the clinical activity of the disease. The STT is the least reliable and, as result, it is clinically used less than half as frequently as TBUT.
The injections of Con A to the lacrimal glands were repeated weekly as needed. When longer than a 1-week periods of study are needed, repeat injections prolong dry eye for at least 3 weeks, making the originally acute model chronic.
PS Suppresses Con A—Induced Dry Eye in Rabbits. The effect of PS on dry eye was determined in New Zealand White (NZW) rabbits, 2-3 kg (Charles River Labs, Waltham, Mass.). These rabbits were housed singly in rooms with strict temperature (70±5° F.) and humidity (45±5%) control and acclimated for at least 2 weeks prior to induction of dry eye by injection of Con A as above. NZW rabbits with Con A-induced dry eye (three sets of injections) were treated with PS formulated as nanoparticles and administered topically as eye drops 3×/day for 21 days, starting on the day of Con A injection. […] Similar results were obtained on days 5 and 14 (data not shown). […]
The efficacy of lower concentrations of PS. The efficacy of lower concentrations of PS, 0.1% and 0.2% in DED, was also evaluated. The same animal model (rabbits with Concanavalin A-induced DED) was used. The same methodology described herein was followed, except that PS was administered as two eye drops per eye (˜25 μL each) four times a day. PS was formulated in: 10% (2-hydroxypropyl)-β-cyclodextrin, 4% Tween 80, 2.5% Vitamin E TPGS, 1.4% polyvinyl alcohol (13,000-26,000 molecular weight), 0.001% polyquad, as described herein. The Table below summarizes the corresponding findings: […]

[5] = system: PGE2; test: PGE2 levels in tears and cornea of rabbits (ELISA); format: in vivo; conditions: rabbits with Con A-induced DED, administered once topically, 1 h later
Procedure: FIGS. 9A and 9B illustrate that PS preserves the levels of PGE2 in tears and the cornea. In FIG. 9A, PGE2 levels were determined by ELISA in tears collected on day 7 from naïve rabbits and rabbits with Con A-induced DED treated for 1 week with vehicle or PS. In FIG. 9B, PGE2 levels were further examined. Upper panel: PGE2 levels in the tears of naïve rabbits and rabbits with Con A-induced DED treated for 1 h with PS or ketorolac as in Methods. Lower panel: PGE2 levels in the corneal tissue of naïve rabbits and rabbits with Con A-induced DED treated for 1 week with vehicle or PS or ketorolac or diclofenac. n=8 eyes/group. Values=mean±SEM.
It was determined that the levels of PGE2 in rabbit tears in three groups of rabbits, naïve and those with Con A-induced DED that were treated for 1 week either with PS or vehicle.
In an acute experiment, administered once topically to the eyes of four groups of rabbits with Con A-induced DED was one of the following: vehicle, PS, ketorolac or diclofenac; the latter two are NSAIDs used for the treatment of ocular inflammation and pain. It was determined that the levels of PGE2 in the cornea of these rabbits obtained 1 h later as well as in the corneas of naïve rabbits.

Row | SMILES | Cmax, aqueous humor [1] | Cmax, conjunctiva [1] | Cmax, cornea [1] | Cmax, conjunctiva [2] | Cmax, cornea [2] | effect on corneal sensitivity (CTT), dry eyes [3] | effect on corneal sensitivity (CTT), normal eyes [3] | also measured
1 | CSc1ccc(/C=C2/C(C)=C(CC(=O)O)c3cc(F)ccc32)cc1 [sulindac sulfide] | 2.0 μm | 0.0 μm | 0.0 μm | 0 nM | 600 nM |  |  | 
2 | CC1=C(CC(=O)O)c2cc(F)ccc2/C1=C\c1ccc([S+](C)[O-])cc1 (stereo not shown) [sulindac, reference compound] | 1.0 μm | 4.2 μm | 8.7 μm | 3800 nM | 3600 nM |  |  | 
3 | CS(=O)(=O)c1cccc(C[C@H](NC(=O)c2c(Cl)cc3c(c2Cl)CCN(C(=O)c2ccc4ccoc4c2)C3)C(=O)O)c1 [Lifitegrast, lifitegrast, reference compound] |  |  |  |  |  | lack any ocular analgesic effect | lack any ocular analgesic effect | 
4 | O=C(O)Cc1ccccc1Nc1c(Cl)cccc1Cl [diclofenac, reference compound] |  |  |  |  |  |  |  | STT [4]: failed to improve; TBUT [4]: failed to improve; osmolarity [4]: failed to improve; PGE2 levels in the cornea [5]: suppressed nearly completely
5 | CC1=C(CC(=O)O)c2cc(F)ccc2/C1=C\c1ccc(S(C)(=O)=O)cc1 [sulindac sulfone] | 0.0 μm | 0.8 μm | 4.0 μm | 1600 nM | 1300 nM |  |  | AUC0-16h, conjunctiva [1]: 3.2 µM·h; AUC0-16h, cornea [1]: 24.4 µM·h; Tmax, aqueous humor [1]: 0.0 h; Tmax, conjunctiva [1]: 2.0 h; Tmax, cornea [1]: 4.0 h; AUC0-16h, conjunctiva [2]: 7.3 µM·h; AUC0-16h, cornea [2]: 10 µM·h; Tmax, cornea [2]: 4 h
6 | Nc1c(CC(=O)O)cccc1C(=O)c1ccc(Br)cc1 [bromfenac, reference compound] |  |  |  |  |  | no analgesic effect | display analgesic efficacy | 
